≈ marks a conversion by molar mass, not a printed value.
Experiments:
Mus musculus [1] = assay: Antinociceptive activity in orally dosed mouse assessed as reduction in mechanical nociception measured after 30 mins post dose by paw pressure pain test; format: functional; details: po, 0.5 h
Mus musculus [2] = assay: Induction of constipation in mouse assessed as effect on intestinal transit at 10 mg/kg, po dosed 30 mins before charcoal suspension dosing and measured after 30 mins; format: organism-based; details: in vivo, 0.5 h
Cytochrome P450 3A4 = Cytochrome P450 3A4 (Homo sapiens, UniProt P08684); assay: Inhibition of recombinant human CYP3A4 using fluorometric substrate; format: ADME; details: recombinant enzyme
[3] = Basicity constant, pKa of the compound; format: physicochemical
Cytochrome P450 2E1 = Cytochrome P450 2E1 (Homo sapiens, UniProt P05181); assay: Inhibition of recombinant human CYP2E1 using fluorometric substrate; format: ADME; details: recombinant enzyme
[4] = Clearance in human liver microsomes; format: ADME, Microsome; details: read-out: CLH
Cytochrome P450 2D6 = Cytochrome P450 2D6 (Homo sapiens, UniProt P10635); assay: Inhibition of recombinant human CYP2D6 using fluorometric substrate; format: ADME; details: recombinant enzyme
[5] = Lipophilicity, log Pof the compound; format: physicochemical; details: octanol/water
[6] = biological target: T1, Alpha-1A adrenergic receptor (Homo sapiens, UniProt P35348); assay: Displacement of [3H]-prazosin from human alpha1A adrenoreceptor expressed in enriched membranes incubated for 90 mins by liquid scintillation counting method; format: cell membranes
T1 sequence (P35348 whole entry): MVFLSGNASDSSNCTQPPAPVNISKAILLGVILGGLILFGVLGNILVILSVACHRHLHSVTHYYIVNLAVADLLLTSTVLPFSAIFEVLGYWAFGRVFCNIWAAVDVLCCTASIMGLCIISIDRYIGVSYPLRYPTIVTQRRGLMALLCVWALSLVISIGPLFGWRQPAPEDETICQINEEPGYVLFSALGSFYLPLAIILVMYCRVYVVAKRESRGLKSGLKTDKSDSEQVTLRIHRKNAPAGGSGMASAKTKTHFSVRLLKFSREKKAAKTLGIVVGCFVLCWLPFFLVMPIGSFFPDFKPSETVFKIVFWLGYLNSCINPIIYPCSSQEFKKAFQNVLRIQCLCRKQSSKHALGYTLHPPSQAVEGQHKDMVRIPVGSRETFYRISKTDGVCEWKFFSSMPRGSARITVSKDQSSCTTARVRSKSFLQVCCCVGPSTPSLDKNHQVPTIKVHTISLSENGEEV

Mus musculus [7] = assay: Antinociceptive activity in ip dosed mouse assessed as reduction in mechanical nociception measured after 30 mins post dose by paw pressure pain test; format: functional; details: 0.5 h
Cytochrome P450 2C9 = Cytochrome P450 2C9 (Homo sapiens, UniProt P11712); assay: Inhibition of recombinant human CYP2C9 using fluorometric substrate; format: ADME; details: recombinant enzyme
Cytochrome P450 2C19 = Cytochrome P450 2C19 (Homo sapiens, UniProt P33261); assay: Inhibition of recombinant human CYP2C19 using fluorometric substrate; format: ADME; details: recombinant enzyme
[8] = Thermodynamic solubility in pH 2 buffer; format: physicochemical; details: read-out: Therm_solubility
[9] = biological target: 5-hydroxytryptamine receptor 2B (Homo sapiens, UniProt P41595); assay: Inhibition of 5HT2B receptor (unknown origin)
hERG (KCNH2) = hERG (KCNH2) (Homo sapiens, UniProt Q12809); assay: Inhibition of human ERG expressed in CHOK1 cells assessed as reduction in channel current at 10 uM at -80 mV holding potential by whole cell patch clamp assay relative to control; format: cell-based; details: CHO-K1 cells expressing human ERG
Cytochrome P450 1A2 = biological target: T2, Cytochrome P450 1A2 (Homo sapiens, UniProt P05177); assay: Inhibition of recombinant human CYP1A2 using fluorometric substrate; format: ADME; details: recombinant enzyme
T2 sequence (P05177 whole entry): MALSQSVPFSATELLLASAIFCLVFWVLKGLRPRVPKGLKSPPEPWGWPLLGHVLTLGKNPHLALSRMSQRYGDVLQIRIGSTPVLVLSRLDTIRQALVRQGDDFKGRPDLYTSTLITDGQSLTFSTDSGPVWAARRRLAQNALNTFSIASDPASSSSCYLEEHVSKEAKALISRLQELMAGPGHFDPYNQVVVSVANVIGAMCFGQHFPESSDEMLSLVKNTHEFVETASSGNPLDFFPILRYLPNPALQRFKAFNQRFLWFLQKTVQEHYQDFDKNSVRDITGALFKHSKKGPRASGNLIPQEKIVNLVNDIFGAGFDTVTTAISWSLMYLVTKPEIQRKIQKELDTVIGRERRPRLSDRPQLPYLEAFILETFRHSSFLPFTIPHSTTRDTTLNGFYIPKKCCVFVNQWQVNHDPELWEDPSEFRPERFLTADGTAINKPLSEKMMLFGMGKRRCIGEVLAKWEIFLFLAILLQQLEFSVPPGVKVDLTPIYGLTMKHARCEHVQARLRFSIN

Mus musculus [10] = assay: Induction of constipation in mouse assessed as effect on intestinal transit at 20 mg/kg, ip dosed 30 mins before charcoal suspension dosing and measured after 30 mins; format: organism-based; details: in vivo, 0.5 h
[11] = Thermodynamic solubility in pH 7.4 buffer; format: physicochemical; details: read-out: Therm_solubility
[12] = biological target: Voltage-gated inwardly rectifying potassium channel KCNH2 (Homo sapiens, UniProt Q12809)
Description: Inhibition of human ERG expressed in CHOK1 cells assessed as reduction in channel current at -80 mV holding potential by whole cell patch clamp assay

[13] = biological target: T3, Alpha-1A adrenergic receptor (Homo sapiens) (UniProt P35348); assay: Displacement of [3H]-prazosin from human alpha1A adrenoreceptor expressed in enriched membranes at 1 uM incubated for 90 mins by liquid scintillation counting method relative to control; format: cell membranes
T3 sequence (whole entry): T1 sequence (P35348 whole entry)

Mu-type opioid receptor [14] = biological target: T4, Mu-type opioid receptor (Homo sapiens, UniProt P35372); assay: Agonist activity at human MOR expressed in CHOK1 cells assessed as […] of cAMP accumulation incubated for 45 mins by HTRF assay; format: functional, cell-based
Mu-type opioid receptor [15] = biological target: T4, Mu-type opioid receptor; assay: biochemical
Description: Displacement of [3H]-DAMGO from human MOR expressed in CHOK1 cell membranes incubated for 60 mins by liquid scintillation counting method

Mu-type opioid receptor [16] = biological target: T4, Mu-type opioid receptor; assay: Agonist activity at human MOR expressed in CHOK1 cells assessed as […] of cAMP accumulation incubated for 45 mins by HTRF assay relative to DAMGO; format: functional, cell-based
[17] = biological target: T5, Sigma non-opioid intracellular receptor 1 (Homo sapiens, UniProt Q99720); assay: Displacement of [3H]-(+)-pentazocine from human sigma-1 receptor expressed in HEK293 membranes incubated for 120 mins by liquid scintillation counting method
Mu-type opioid receptor [18] = biological target: T4, Mu-type opioid receptor; assay: Agonist activity at human MOR expressed in CHOK1 cells assessed as […] of cAMP accumulation at 1 uM incubated for 45 mins by HTRF assay; format: functional, cell-based
Mu-type opioid receptor [19] = biological target: T4, Mu-type opioid receptor; assay: Displacement of [3H]-DAMGO from human MOR expressed in CHOK1 cell membranes at 1 uM incubated for 60 mins by liquid scintillation counting method
[20] = biological target: T5, Sigma non-opioid intracellular receptor 1; assay: Displacement of [3H]-(+)-pentazocine from human sigma-1 receptor expressed in HEK293 membranes at 1 uM incubated for 120 mins by liquid scintillation counting method relative to control
Mu-type opioid receptor [21] = biological target: T4, Mu-type opioid receptor; assay: Agonist activity at human MOR expressed in CHOK1 cells assessed as […] of cAMP accumulation at 10 uM incubated for 45 mins by HTRF assay; format: functional, cell-based
Mu-type opioid receptor [22] = biological target: T4, Mu-type opioid receptor; assay: Displacement of [3H]-DAMGO from human MOR expressed in CHOK1 cell membranes at 10 uM incubated for 60 mins by liquid scintillation counting method

T5 sequence (Q99720 whole entry): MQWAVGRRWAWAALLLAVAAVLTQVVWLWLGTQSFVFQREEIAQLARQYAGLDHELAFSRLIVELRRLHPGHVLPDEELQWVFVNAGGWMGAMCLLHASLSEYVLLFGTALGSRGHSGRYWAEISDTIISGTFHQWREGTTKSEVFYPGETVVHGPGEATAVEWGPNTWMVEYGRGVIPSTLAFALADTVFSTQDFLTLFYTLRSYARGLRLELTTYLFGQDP
T4 sequence (P35372 whole entry): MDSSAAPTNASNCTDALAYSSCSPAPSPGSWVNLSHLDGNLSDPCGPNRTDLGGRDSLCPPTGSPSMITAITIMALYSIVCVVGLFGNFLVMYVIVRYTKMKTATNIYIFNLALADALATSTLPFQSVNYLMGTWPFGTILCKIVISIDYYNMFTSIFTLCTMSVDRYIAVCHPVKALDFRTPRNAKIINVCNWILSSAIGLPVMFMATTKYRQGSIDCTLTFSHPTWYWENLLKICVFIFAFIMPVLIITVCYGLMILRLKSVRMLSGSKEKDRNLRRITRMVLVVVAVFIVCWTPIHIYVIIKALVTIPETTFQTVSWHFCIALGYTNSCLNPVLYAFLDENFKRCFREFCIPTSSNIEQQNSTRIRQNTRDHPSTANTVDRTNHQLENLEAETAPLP
Sequence of hERG (KCNH2) (Q12809 whole entry): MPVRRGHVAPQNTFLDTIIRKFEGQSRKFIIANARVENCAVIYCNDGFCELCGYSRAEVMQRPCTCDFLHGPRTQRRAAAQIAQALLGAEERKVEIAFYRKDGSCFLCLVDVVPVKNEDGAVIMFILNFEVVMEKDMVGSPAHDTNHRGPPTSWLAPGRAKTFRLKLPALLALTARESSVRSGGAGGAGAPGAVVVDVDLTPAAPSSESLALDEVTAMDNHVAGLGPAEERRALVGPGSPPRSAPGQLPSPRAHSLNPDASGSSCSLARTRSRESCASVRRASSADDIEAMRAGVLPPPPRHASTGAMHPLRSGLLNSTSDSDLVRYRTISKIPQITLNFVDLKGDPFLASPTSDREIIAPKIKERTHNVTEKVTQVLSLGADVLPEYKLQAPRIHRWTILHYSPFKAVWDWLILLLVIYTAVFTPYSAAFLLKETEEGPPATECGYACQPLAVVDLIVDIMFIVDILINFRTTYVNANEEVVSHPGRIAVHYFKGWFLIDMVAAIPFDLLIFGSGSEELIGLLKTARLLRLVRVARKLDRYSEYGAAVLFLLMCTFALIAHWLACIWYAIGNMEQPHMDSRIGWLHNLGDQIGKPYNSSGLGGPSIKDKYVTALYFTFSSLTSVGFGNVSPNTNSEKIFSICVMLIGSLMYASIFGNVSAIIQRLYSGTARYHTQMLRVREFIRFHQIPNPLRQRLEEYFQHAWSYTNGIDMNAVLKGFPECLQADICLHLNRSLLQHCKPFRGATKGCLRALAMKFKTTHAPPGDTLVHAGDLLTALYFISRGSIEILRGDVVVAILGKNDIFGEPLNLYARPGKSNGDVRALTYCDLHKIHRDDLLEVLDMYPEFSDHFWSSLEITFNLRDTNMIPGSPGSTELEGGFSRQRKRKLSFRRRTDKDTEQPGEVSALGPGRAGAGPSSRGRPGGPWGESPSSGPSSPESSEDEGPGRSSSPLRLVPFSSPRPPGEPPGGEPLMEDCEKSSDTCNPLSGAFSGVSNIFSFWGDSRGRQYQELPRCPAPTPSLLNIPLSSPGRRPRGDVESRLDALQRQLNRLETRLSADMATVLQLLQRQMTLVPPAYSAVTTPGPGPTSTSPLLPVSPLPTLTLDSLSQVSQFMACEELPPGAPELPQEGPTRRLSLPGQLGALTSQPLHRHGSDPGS
Sequence of Voltage-gated inwardly rectifying potassium channel KCNH2 (Q12809 whole entry): as above
Sequence of Cytochrome P450 2E1 (P05181 whole entry): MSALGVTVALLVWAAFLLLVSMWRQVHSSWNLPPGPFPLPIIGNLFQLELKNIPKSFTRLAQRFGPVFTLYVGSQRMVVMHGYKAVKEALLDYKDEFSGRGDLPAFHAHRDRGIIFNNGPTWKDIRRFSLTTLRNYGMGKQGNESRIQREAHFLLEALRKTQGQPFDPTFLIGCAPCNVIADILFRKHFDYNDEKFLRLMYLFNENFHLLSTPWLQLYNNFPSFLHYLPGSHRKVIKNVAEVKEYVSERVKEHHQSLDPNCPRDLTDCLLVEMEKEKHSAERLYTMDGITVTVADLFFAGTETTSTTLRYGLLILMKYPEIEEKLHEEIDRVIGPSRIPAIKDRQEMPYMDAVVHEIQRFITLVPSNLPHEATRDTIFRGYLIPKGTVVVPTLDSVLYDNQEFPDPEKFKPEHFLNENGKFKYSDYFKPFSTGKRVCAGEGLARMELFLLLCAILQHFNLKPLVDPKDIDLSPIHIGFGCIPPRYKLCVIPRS
Sequence of Cytochrome P450 2C19 (P33261 whole entry): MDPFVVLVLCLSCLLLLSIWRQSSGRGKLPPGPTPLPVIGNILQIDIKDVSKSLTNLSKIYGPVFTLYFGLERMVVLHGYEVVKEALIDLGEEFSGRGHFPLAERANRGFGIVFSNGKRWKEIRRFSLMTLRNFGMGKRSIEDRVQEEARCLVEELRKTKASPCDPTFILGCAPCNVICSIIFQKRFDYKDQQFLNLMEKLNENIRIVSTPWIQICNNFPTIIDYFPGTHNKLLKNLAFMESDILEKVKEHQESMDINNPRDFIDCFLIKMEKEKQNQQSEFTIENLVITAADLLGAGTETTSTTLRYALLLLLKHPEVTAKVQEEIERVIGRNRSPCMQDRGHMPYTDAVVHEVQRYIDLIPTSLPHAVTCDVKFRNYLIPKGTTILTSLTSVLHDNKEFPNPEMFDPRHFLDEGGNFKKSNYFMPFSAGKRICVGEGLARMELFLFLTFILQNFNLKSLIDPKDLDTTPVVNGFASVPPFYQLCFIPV
Sequence of Cytochrome P450 2C9 (P11712 whole entry): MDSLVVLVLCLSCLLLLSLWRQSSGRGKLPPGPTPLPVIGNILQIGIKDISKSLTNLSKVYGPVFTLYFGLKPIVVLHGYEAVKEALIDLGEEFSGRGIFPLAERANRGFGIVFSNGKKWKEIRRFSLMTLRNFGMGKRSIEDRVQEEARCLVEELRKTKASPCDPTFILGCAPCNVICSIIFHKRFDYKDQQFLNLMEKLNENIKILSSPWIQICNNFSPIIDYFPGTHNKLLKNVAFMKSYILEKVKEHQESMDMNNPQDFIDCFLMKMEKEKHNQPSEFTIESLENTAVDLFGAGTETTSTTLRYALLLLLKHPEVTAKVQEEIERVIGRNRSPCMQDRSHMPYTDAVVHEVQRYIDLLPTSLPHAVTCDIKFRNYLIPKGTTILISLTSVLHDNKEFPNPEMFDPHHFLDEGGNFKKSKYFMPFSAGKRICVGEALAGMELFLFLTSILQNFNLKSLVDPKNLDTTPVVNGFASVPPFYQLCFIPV
Sequence of Cytochrome P450 3A4 (P08684 whole entry): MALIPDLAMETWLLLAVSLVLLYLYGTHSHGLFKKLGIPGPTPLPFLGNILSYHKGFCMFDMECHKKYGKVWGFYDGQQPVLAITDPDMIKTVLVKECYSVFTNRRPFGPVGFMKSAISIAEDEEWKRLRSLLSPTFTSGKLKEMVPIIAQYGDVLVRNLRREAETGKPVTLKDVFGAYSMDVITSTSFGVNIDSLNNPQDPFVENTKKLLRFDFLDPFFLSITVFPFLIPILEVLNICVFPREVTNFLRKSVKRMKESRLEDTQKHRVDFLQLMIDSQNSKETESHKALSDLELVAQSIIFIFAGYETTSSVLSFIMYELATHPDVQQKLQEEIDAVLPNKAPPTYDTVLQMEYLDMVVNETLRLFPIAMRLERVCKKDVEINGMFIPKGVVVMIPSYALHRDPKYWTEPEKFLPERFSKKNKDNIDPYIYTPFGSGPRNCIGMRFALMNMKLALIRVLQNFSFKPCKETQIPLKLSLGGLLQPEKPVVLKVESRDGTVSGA

Structure (SMILES)	inhibition at 10 µM (hERG (KCNH2)) [%]	IC50 [12] [nM]	inhibition [13] [%]	EC50 (Mu-type opioid receptor [14]) [nM]	Ki (Mu-type opioid receptor [15]) [nM]	Ki [17] [nM]	Activity (Mu-type opioid receptor [18]) [%]	inhibition (Mu-type opioid receptor [19]) [%]	other results
COc1ccc2c3c1O[C@H]1C(=O)CC[C@@]4(O)[C@@H](C2)N(C)CC[C@]314 [OXYCODONE]									ED50 (Mus musculus [1]): 4.3 mg/kg; Activity (Mus musculus [2]): Toxic
O=C1N(c2cccnc2C(F)(F)F)CC2(CCN(CCc3ccccc3F)CC2)OC12CC2	< 50	> 10000							inhibition (INH) (Cytochrome P450 3A4): < 50%; pKa [3]: 7.82; inhibition (INH) (Cytochrome P450 2E1): < 50%; microsomal CLint [4]: 20 µL/min/mg; inhibition (INH) (Cytochrome P450 2D6): < 50%; logP [5]: 3.41; Ki [6]: 470 nM; ED50 (Mus musculus [7]): 15 mg/kg; inhibition (INH) (Cytochrome P450 2C9): < 50%; inhibition (INH) (Cytochrome P450 2C19): < 50%; solubility thermodynamic [8]: 2630 µg/mL (≈ 5.67 mM); Ki [9]: 754 nM; inhibition (INH) (Cytochrome P450 1A2): < 50%; Activity (Mus musculus [10]): Non-Toxic; solubility thermodynamic [11]: 160 µg/mL (≈ 0.345 mM)
CC(=O)Nc1cccc(CCN2CCC3(CC2)CN(c2ccccc2)C(=O)C(C)O3)c1 (racemic)	< 50	> 10000	88	343	144	147			Emax (Mu-type opioid receptor [16]): 96%
CC(=O)Nc1cccc(CCN2CCC3(CC2)CN(c2ccccc2)C(=O)[C@@H](C)O3)c1	< 50	> 10000	90	69	46	205			Emax (Mu-type opioid receptor [16]): 95%
COc1ccc(N2CC3(CCN(CCc4ccccc4)CC3)OC(C)C2=O)cc1 (stereo not given)			69	> 1000	> 1000	14	< 50	< 50	
CC(=O)Nc1ccc(CCN2CCC3(CC2)CN(c2ccccc2)C(=O)C(C)O3)cc1 (stereo not given)			60	> 1000	> 1000	237	< 50	< 50	
O=C(O)CC1OC2(CCN(CCc3ccccc3)CC2)CN(c2ccccc2)C1=O (stereo not given)				> 1000	> 1000	> 1000	< 50	< 50	inhibition [20]: < 50%
Cc1cc(OCCN2CCOCC2)nn1-c1ccc2ccccc2c1									Activity (Mu-type opioid receptor [21]): < 50%
CC1OC2(CCN(CCc3ccccc3)CC2)CN(c2ccc(C(F)(F)F)nc2)C1=O (stereo not given)			66	> 1000	> 1000	9	< 50	< 50	
O=C(CCCN1CCC(O)(c2ccc(Cl)cc2)CC1)c1ccc(F)cc1									inhibition (Mu-type opioid receptor [22]): < 50%; Activity (Mu-type opioid receptor [21]): < 50%
